Experimental data from US20260124214A1, “HETEROCYCLIC COMPOUNDS FOR USE IN THE TREATMENT OF CANCER” (ARTIOS PHARMA LIMITED, priority 2021, published 2026).
pKi: −log10 of the molar value. Where a name gives a salt, the structure may show the parent alone.

Molecular target: T1, Human Polθ polymerase domain (aa1820-2590) (Homo sapiens, UniProt O75417)
T1 construct: Human Polθ polymerase domain (aa1820-2590) was expressed in E. Coli; made in house; host or cells: E. coli
T1 sequence (O75417 1820-2590): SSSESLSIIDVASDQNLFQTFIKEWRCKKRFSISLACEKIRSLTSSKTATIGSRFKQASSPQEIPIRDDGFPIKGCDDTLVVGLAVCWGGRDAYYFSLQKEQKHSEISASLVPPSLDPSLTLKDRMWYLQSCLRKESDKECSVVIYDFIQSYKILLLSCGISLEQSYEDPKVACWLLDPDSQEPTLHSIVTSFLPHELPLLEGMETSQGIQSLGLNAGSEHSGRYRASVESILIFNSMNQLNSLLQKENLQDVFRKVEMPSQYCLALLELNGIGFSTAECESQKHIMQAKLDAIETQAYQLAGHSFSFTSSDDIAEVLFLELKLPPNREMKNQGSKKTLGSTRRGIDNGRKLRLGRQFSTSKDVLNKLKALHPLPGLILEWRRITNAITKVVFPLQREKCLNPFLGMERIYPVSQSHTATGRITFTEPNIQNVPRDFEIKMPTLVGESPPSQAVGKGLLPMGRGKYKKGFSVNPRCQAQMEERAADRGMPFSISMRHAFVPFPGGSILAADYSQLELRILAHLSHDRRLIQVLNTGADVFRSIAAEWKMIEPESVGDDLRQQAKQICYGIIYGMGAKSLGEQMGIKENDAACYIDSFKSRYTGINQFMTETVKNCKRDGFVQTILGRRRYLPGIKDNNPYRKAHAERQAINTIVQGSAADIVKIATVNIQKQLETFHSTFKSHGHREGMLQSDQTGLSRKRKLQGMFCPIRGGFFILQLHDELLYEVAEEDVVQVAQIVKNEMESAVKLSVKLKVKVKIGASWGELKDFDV
Experiment: Polθ Polymerase Domain WT KI Assay (PicoGreen)
Assay type: biochemical
Settings: 100 nM DNA substrate, 0.156 nM Polθ, initial rates vs inhibitor concentration
Experimental: A PicoGreen assay was used to measure the KI values of reversible compounds that inhibit the activity of Polθ in vitro.
Human Polθ polymerase domain (aa1820-2590) was expressed in E. Coli, purified, aliquoted and stored at −80° C. until required. Polθ substrate was generated from a 1.2:1 mix of DNA II Short to DNA II Long to give a final concentration of […] substrate in annealing buffer (20 mM Tris pH 7.5, 50 mM NaCl). The substrate was heated in 50 mL aliquots to 95° C. in a heating block for 5 min before the heating block switched off, the reaction left to cool to rt and stored at −20° C. until required.
Assay measurements were performed with 1× buffer comprising 25 mM Tris pH 7.5, 12.5 mM NaCl, […], 5% (v/v) glycerol, 0.01% v/v Triton x-100, 0.1 mg/ml BSA, 1 mM DTT. […] 100 nL of 23×1:1.5-fold serial dilutions and a DMSO only control were dispensed using the Tecan dispenser into Greiner 384 well black low volume plates (product code 784076). DMSO concentration was maintained at 1% of the final assay volume by back filling with DMSO.
To stop the reaction, 5 μL of a solution containing 25 mM Tris-HCl PH 7.5 and 20 mM EDTA was added at […] (t=0, 15, 30, 60, 90, 120, 150, 180 mins) using the Tempest's time delay function. The plates were covered during the time course to prevent evaporation. After completing the assay, 5 μL of detection reagent (25 mM Tris-HCl pH 7.5 and 2.5% (v/v) PicoGreen) was dispensed into the wells using a Tempest liquid handler (Formulatrix) and plates subsequently read on the CLARIOstar Plus (BMG Labtech) using the default optical settings for fluorescein and the auto gain/focus settings.
All data analysis was carried out using GraphPad Prism V.8 (GraphPad Software Inc, San Diego, CA). Time course data for each inhibitor concentration were fitted to the linear regression model in GraphPad Prism. Any time points where the control (DMSO only) reaction was no longer linear were excluded from the analysis. The initial rates (slopes) obtained from the linear regression were then plotted against inhibitor concentration and fitted to an inhibitor vs. response variable slope (four parameter) model on GraphPad Prism to determine the KI values.

Structure (SMILES) | pKi
Cc1cc(C(F)(F)F)cc(N2C(=O)C[C@@H]3CN(CCN4CCN(C5COC5)CC4)c4c(Cl)cccc4N(C)C(=O)[C@H]32)n1 [Example 28, (3aR,11aS)-6-Chloro-10-methyl-1-(6-methyl-4-(trifluoromethyl)pyridin-2-yl)-5-(2-(4-(oxetan-3-yl)piperazin-1-yl)ethyl)-1,3a,4,5,10,11a-hexahydro-2H-benzo[b]pyrrolo[2,3-f][1,4]diazocine-2,11(3H)-dione] | 8.71
Cc1cc(C(F)(F)F)cc(N2C(=O)C[C@@H]3CN(C[C@H]4CCN(C)[C@H](C)C4)c4c(Cl)cccc4N(C)C(=O)[C@H]32)n1 (single isomer, unassigned) [Example 126c] | 9.05
Cc1cc(C(F)(F)F)cc(N2C(=O)C[C@@H]3CN(C[C@@H]4CCCN4C)c4c(Cl)cccc4N(C)C(=O)[C@H]32)n1 (racemic) [Example 118b, (3aR,11aS)-6-Chloro-10-methyl-1-(6-methyl-4-(trifluoromethyl)pyridin-2-yl)-5-(((S/R)-1-methylpyrrolidin-2-yl)methyl)-1,3a,4,5,10,11a-hexahydro-2H-benzo[b]pyrrolo[2,3-f][1,4]diazocine-2,11(3H)-dione] | 8.22
Cc1cc(C(F)(F)F)cc(N2C(=O)C[C@@H]3CN(CC4CCN(C)CC4)c4c(C)cccc4N(C)C(=O)[C@H]32)n1 [Example 79, (3aR,11aS)-6,10-Dimethyl-1-(6-methyl-4-(trifluoromethyl)pyridin-2-yl)-5-((1-methylpiperidin-4-yl)methyl)-1,3a,4,5,10,11a-hexahydro-2H-benzo[b]pyrrolo[2,3-f][1,4]diazocine-2,11(3H)-dione] | 8.87
Cc1cc(C(F)(F)F)cc(N2C(=O)C[C@@H]3CN(CCN4CCN(S(C)(=O)=O)CC4)c4c(Cl)cccc4N(C)C(=O)[C@H]32)n1 [Example 36, (3aR,11aS)-6-Chloro-10-methyl-1-(6-methyl-4-(trifluoromethyl)pyridin-2-yl)-5-(2-(4-(methylsulfonyl)piperazin-1-yl)ethyl)-1,3a,4,5,10,11a-hexahydro-2H-benzo[b]pyrrolo[2,3-f][1,4]diazocine-2,11(3H)-dione] | 8.90
Cc1cc(C(F)(F)F)cc(N2C(=O)C[C@@H]3CN(c4ccc5ncn(C)c5c4)c4c(F)cccc4N(C)C(=O)[C@H]32)n1 [Example 144, (3aR,11aS)-6-Fluoro-10-methyl-5-(1-methyl-1H-benzo[d]imidazol-6-yl)-1-(6-methyl-4-(trifluoromethyl)pyridin-2-yl)-1,3a,4,5,10,11a-hexahydro-2H-benzo[b]pyrrolo[2,3-f][1,4]diazocine-2,11(3H)-dione] | 7.54
Cc1cc(C(F)(F)F)cc(N2C(=O)C[C@@H]3CN(CC(C)O)c4c(F)cccc4N(C)C(=O)[C@H]32)n1 (single isomer, unassigned) [Example 130b] | 7.99
COCCN1CCN(CCN2C[C@H]3CC(=O)N(c4cc(C(F)(F)F)cc(C)n4)[C@@H]3C(=O)N(C)c3cccc(Cl)c32)CC1 [Example 27, (3aR,11aS)-6-Chloro-5-(2-(4-(2-methoxyethyl)piperazin-1-yl)ethyl)-10-methyl-1-(6-methyl-4-(trifluoromethyl)pyridin-2-yl)-1,3a,4,5,10,11a-hexahydro-2H-benzo[b]pyrrolo[2,3-f][1,4]diazocine-2,11(3H)-dione] | 8.88
Cc1cc(C(F)(F)F)cc(N2C(=O)C[C@@H]3CN(CCN4CC[C@H](C#N)C4)c4c(C)cccc4N(C)C(=O)[C@H]32)n1 [Example 70, (S)-1-(2-((3aR,11aS)-6,10-Dimethyl-1-(6-methyl-4-(trifluoromethyl)pyridin-2-yl)-2,11-dioxo-1,2,3,3a,4,10,11,11a-octahydro-5H-benzo[b]pyrrolo[2,3-f][1,4]diazocin-5-yl)ethyl)pyrrolidine-3-carbonitrile] | 9.16
Cc1cc(C(F)(F)F)cc(N2C(=O)C[C@@H]3CN(c4ccccc4)c4c(F)cccc4N(C)C(=O)[C@H]32)n1 [Example 139, (3aR,11aS)-6-Fluoro-10-methyl-1-(6-methyl-4-(trifluoromethyl)pyridin-2-yl)-5-phenyl-1,3a,4,5,10,11a-hexahydro-2H-benzo[b]pyrrolo[2,3-f][1,4]diazocine-2,11(3H)-dione] | 7.25
COc1cccc(N2C[C@H]3CC(=O)N(c4cc(C(F)(F)F)cc(C)n4)[C@@H]3C(=O)N(C)c3cccc(F)c32)n1 [Example 141, (3aR,11aS)-6-Fluoro-5-(6-methoxypyridin-2-yl)-10-methyl-1-(6-methyl-4-(trifluoromethyl)pyridin-2-yl)-1,3a,4,5,10,11a-hexahydro-2H-benzo[b]pyrrolo[2,3-f][1,4]diazocine-2,11(3H)-dione] | 7.06
Cc1cc(C(F)(F)F)cc(N2C(=O)C[C@@H]3CN(C[C@H]4COCCN4)c4c(F)cccc4N(C)C(=O)[C@H]32)n1 (racemic) [Example 106b, (3aR,11aS)-6-Fluoro-10-methyl-1-(6-methyl-4-(trifluoromethyl)pyridin-2-yl)-5-(((S/R)-morpholin-3-yl)methyl)-1,3a,4,5,10,11a-hexahydro-2H-benzo[b]pyrrolo[2,3-f][1,4]diazocine-2,11(3H)-dione] | 7.55
Cc1cc(C(F)(F)F)cc(N2C(=O)C[C@@H]3CN(CCN4CCN(C)C[C@H]4CO)c4c(C)cccc4N(C)C(=O)[C@H]32)n1 [Example 64, (3aR,11aS)-5-(2-((S)-2-(Hydroxymethyl)-4-methylpiperazin-1-yl)ethyl)-6,10-dimethyl-1-(6-methyl-4-(trifluoromethyl)pyridin-2-yl)-1,3a,4,5,10,11a-hexahydro-2H-benzo[b]pyrrolo[2,3-f][1,4]diazocine-2,11(3H)-dione dihydrochloride] | 9.09
Cc1cc(C(F)(F)F)cc(N2C(=O)C[C@@H]3CN(Cc4cn5c(n4)C(C)N(C)CC5)c4c(Cl)cccc4N(C)C(=O)[C@H]32)n1 (single isomer, unassigned) [Example 96a] | 8.84
Cc1cc(C(F)(F)F)cc(N2C(=O)C[C@@H]3CN(CCN4CCOC[C@@H]4C)c4c(Cl)cccc4N(C)C(=O)[C@H]32)n1 [Example 25, (3aR,11aS)-6-Chloro-10-methyl-1-(6-methyl-4-(trifluoromethyl)pyridin-2-yl)-5-(2-((S)-3-methylmorpholino)ethyl)-1,3a,4,5,10,11a-hexahydro-2H-benzo[b]pyrrolo[2,3-f][1,4]diazocine-2,11(3H)-dione] | 9.15
Cc1cc(C(F)(F)F)cc(N2C(=O)C[C@@H]3CN(C[C@@H]4CCCCN4C)c4c(Cl)cccc4N(C)C(=O)[C@H]32)n1 (racemic) [Example 117b, (3aR,11aS)-6-Chloro-10-methyl-1-(6-methyl-4-(trifluoromethyl)pyridin-2-yl)-5-(((S/R)-1-methylpiperidin-2-yl)methyl)-1,3a,4,5,10,11a-hexahydro-2H-benzo[b]pyrrolo[2,3-f][1,4]diazocine-2,11(3H)-dione] | 8.39
Cc1cc(C(F)(F)F)cc(N2C(=O)C[C@@H]3CN(CCN4CCS(=O)(=O)CC4)c4c(Cl)cccc4N(C)C(=O)[C@H]32)n1 [Example 37, (3aR,11aS)-6-Chloro-5-(2-(1,1-dioxidothiomorpholino)ethyl)-10-methyl-1-(6-methyl-4-(trifluoromethyl)pyridin-2-yl)-1,3a,4,5,10,11a-hexahydro-2H-benzo[b]pyrrolo[2,3-f][1,4]diazocine-2,11(3H)-dione] | 8.76
